One experiment deals with T1, Cereblon (CRBN) protein (Homo sapiens, UniProt Q96SW2).
T1 construct: purchased Eurofins (E3scan service); host or cells: HEK-293
The experiment in a line: CRBN binding affinity, E3scan (Eurofins) competition binding with qPCR read-out. As to conditions: lower % Ctrl = stronger binding, DMSO = 100 % Ctrl, lenalidomide = 0 % Ctrl. The procedure:
Specifically, CRBN was produced using a HEK-293 cell line and labeled with DNA for qPCR detection. Streptavidin-coated magnetic beads were treated with a biotinylated small-molecule ligand at room temperature for 30 minutes to generate an affinity resin for E3scan analysis. The liganded beads were blocked with excess biotin and washed with a blocking buffer (SeaBlock (Pierce), 1 % BSA, 0.05 % Tween 20, 1 mM DTT) to remove unbound ligands and prevent non-specific binding. […] The test compound was prepared as a 100× stock in 100 % DMSO and diluted directly into the assay solution. All reactions were performed in a polypropylene 384-well plate with a final reaction volume of 0.02 mL. […] The CRBN concentration in the eluate was measured by qPCR. […] A lower '% Ctrl' indicates a stronger binding affinity. […] ((test compound signal−positive control signal)/(negative control signal−positive control signal)) × 100 [formula]

In experiment [1] the test system is T-cell leukemia cell line Jurkat. The experiment in a line: Cell viability assay (Cell Counting Kit-8), Jurkat. As to conditions: Homo sapiens, 72 hours, CCK-8, absorbance 450 nm. In kind it is cell-based. The procedure:
(§1) To evaluate the cytotoxicity of the compounds synthesized in the Preparation Examples against cancer cells, a cell viability assay following treatment with the synthesized compounds was performed using a T-cell leukemia cell line Jurkat (KCLB, Cat# 40152), a human acute monocytic leukemia cell line MV-4-11 (ATCC, Cat# CRL-9591), and a human multiple myeloma cell line MM.1S (ATCC, Cat# CRL-2974).
(§2) As a culture medium for the cell lines, an RPMI medium containing 10 % heat-inactivated FBS and 1 % penicillin/streptomycin (P/S) antibiotics was used. The culture medium was stored refrigerated and warmed in a 37 °C water bath before use. Each cell line was used for the test after a stabilization period of at least 2 weeks after thawing, and cell culture was performed based on information provided by the cell line manufacturer regarding the thawing and subculture conditions.
(§3) The Jurkat, MV-4-11, or MM.1S cell line was seeded in a 96-well plate at a density of 1 × 10^4 cells/well and incubated in a 37 °C CO2 incubator overnight. After incubation, a prepared test compound was applied to each cell line, and the cells were incubated in a 37 °C CO2 incubator for 72 hours. After 72 hours of incubation, a Cell Counting Kit-8 (Dojindo, Cat# CK04-20) reagent was added, and the cells were incubated in a 37 °C CO2 incubator. Then, the absorbance was measured at 450 nm using a SpectraMax M3 Microplate Reader (N=2, duplicate measurement). The evaluation concentrations for evaluating the cytotoxicity of the compounds were 10 points: 100 µM, 20 µM, 4 µM, 0.8 µM, 0.16 µM, 0.032 µM, 0.0064 µM, 0.00128 µM, 0.000256 µM, and 0 µM, and the test was performed at 2 wells/concentration point (n=2). A GI50 was derived using a GraphPad Prism program.

Experiment [2] concerns human multiple myeloma cell line MM.1S. Description: Cell viability assay (Cell Counting Kit-8), MM.1S. Format: cell-based. Conditions: MM1.S, 72 hours, CCK-8, absorbance 450 nm. The procedure: as §1, §2, §3
In experiment [3] the test system is human acute monocytic leukemia cell line MV-4-11. Description: Cell viability assay (Cell Counting Kit-8), MV-4-11. Format: cell-based. Conditions: MV4-11, 72 hours, CCK-8, absorbance 450 nm. The method, then:
as §1, §2, §3

These results are taken from patent EP4813977A1, “NOVEL COMPOUND AND USE THEREOF” (Protier Biotech Inc., priority 2023, dated 2025).

`O=C1CCC(N2Cc3cc(C(=O)N4Cc5cccc6cccc4c56)ccc3C2=O)C(=O)N1` (centres unmarked) [Compound 31, 3-(5-(1,2-dihydrobenxo[cd]indole-1-carbonyl)-1-oxoisoindolin-2-yl)piperidine-2,6-dione]: the “CRBN binding affinity (% Ctrl @ 5µM)” value on Cereblon (CRBN) protein is recorded as “A (0 ≤ '% Ctrl' < 0.1)”. Further, the results for the GI50 in experiment [1] and in experiment [2] were 100 to 1000 nM and ≤ 100 nM, respectively.
For the compound `O=C1CCC(N2Cc3cc(C(=O)c4cc5ccccc5o4)ccc3C2=O)C(=O)N1` (centres unmarked) [Compound 34, 3-(5-(benzofuran-2-carbonyl)-1-oxoisoindolin-2-yl)piperidine-2,6-dione], on Cereblon (CRBN) protein, the “CRBN binding affinity (% Ctrl @ 5µM)” value is listed as “A (0 ≤ '% Ctrl' < 0.1)”. Also, the GI50 in experiment [1] and in experiment [2] was ≤ 100 nM throughout.
Take `CNc1ccc2cc(C(=O)c3ccc4c(c3)CN(C3CCC(=O)NC3=O)C4=O)[nH]c2c1` (centres unmarked) [Compound 22, 3-(5-(6-(methylamino)-1H-indole-2-carbonyl)-1-oxoisoindolin-2-yl)piperidine-2,6-dione]: the “CRBN binding affinity (% Ctrl @ 5µM)” value at Cereblon (CRBN) protein is recorded as “A (0 ≤ '% Ctrl' < 0.1)”. The GI50 in experiment [1], in experiment [3] and in experiment [2] was ≤ 100 nM in each case.
In the case of `O=C1CCC(N2Cc3cc(C(=O)c4cn(-c5ccccc5)c5ccccc45)ccc3C2=O)C(=O)N1` (centres unmarked) [Compound 35, 3-(1-oxo-5-(1-phenyl-1H-indole-3-carbonyl)isoindolin-2-yl)piperidine-2,6-dione], at Cereblon (CRBN) protein, the “CRBN binding affinity (% Ctrl @ 5µM)” value is given as “A (0 ≤ '% Ctrl' < 0.1)”. Besides, the GI50 in experiment [1] and in experiment [2] was ≤ 100 nM each time.
Take `O=C1CCC(N2Cc3cc(C(=O)c4cc5ccccc5[nH]4)ccc3C2=O)C(=O)N1` (centres unmarked) [Compound 3, 3-(5-(1H-indole-2-carbonyl)-1-oxoisoindolin-2-yl)piperidine-2,6-dione]: the “CRBN binding affinity (% Ctrl @ 5µM)” value at Cereblon (CRBN) protein is listed as “A (0 ≤ '% Ctrl' < 0.1)”. Besides, the GI50 in experiment [1], in experiment [3] and in experiment [2] was ≤ 100 nM throughout.
For `O=C1CCC(N2Cc3cc(C(=O)c4n[nH]c5ccccc45)ccc3C2=O)C(=O)N1` (centres unmarked) [Compound 17, 3-(5-(1H-indazole-3-carbonyl)-1-oxoisoindolin-2-yl)piperidine-2,6-dione], on Cereblon (CRBN) protein, the “CRBN binding affinity (% Ctrl @ 5µM)” value is reported as “A (0 ≤ '% Ctrl' < 0.1)”. For the same compound, the GI50 in experiment [1] was 100 to 1000 nM; in experiment [3] it was ≤ 100 nM; in experiment [2], ≤ 100 nM.
On to `O=C1CCC(N2Cc3cc(C(=O)c4coc5ccccc45)ccc3C2=O)C(=O)N1` (centres unmarked) [Compound 37, 3-(5-(benzofuran-3-carbonyl)-1-oxoisoindolin-2-yl)piperidine-2,6-dione], for which the “CRBN binding affinity (% Ctrl @ 5µM)” value at Cereblon (CRBN) protein is given as “C (1 ≤ % Ctrl' < 10)”. Besides, the GI50 in experiment [1] is 100 to 1000 nM; in experiment [2], ≤ 100 nM.
For `O=C1CCC(N2Cc3cc(C(=O)c4c[nH]c5ccccc45)ccc3C2=O)C(=O)N1` (centres unmarked) [Compound 4, 3-(5-(1H-indole-3-carbonyl)-1-oxoisoindolin-2-yl)piperidine-2.6-dione], in that order: “B (0.1 ≤ '% Ctrl' < 1)”, 100 to 1000 nM and ≤ 100 nM.
The matching figures for `O=C1CCC(N2Cc3cc(C(=O)c4cc(-c5ccccc5)c[nH]4)ccc3C2=O)C(=O)N1` (centres unmarked) [Compound 27, 3-(1-oxo-5-(4-phenyl-1H-pyrrole-2-carbonyl)isoindolin-2-yl)piperidine-2,6-dione]: “A (0 ≤ '% Ctrl' < 0.1)”, ≤ 100 nM and ≤ 100 nM.
As to `O=C1CCC(N2Cc3cc(C(=O)c4ccc(C5CCCCC5)cc4)ccc3C2=O)C(=O)N1` (centres unmarked) [Compound 55, 3-(5-(4-cyclohexylbenzoyl)-1-oxoisoindolin-2-yl)piperidine-2,6-dione], the GI50 in experiment [1] and in experiment [2] was ≤ 100 nM in each case.
For `O=C1CCC(N2Cc3cc(C(=O)c4c[nH]c5cc(Cl)ccc45)ccc3C2=O)C(=O)N1` (centres unmarked) [Compound 18, 3-(5-(6-chloro-1H-indole-3-carbonyl)-1-oxoisoindolin-2-yl)piperidine-2,6-dione], the results for the GI50 in experiment [1], in experiment [3] and in experiment [2] were 100 to 1000 nM, ≤ 100 nM and ≤ 100 nM, respectively.
Consider `O=C1CCC(N2Cc3cc(C(=O)c4ccc(Nc5ccccc5)cc4)ccc3C2=O)C(=O)N1` (centres unmarked) [Compound 15, 3-(1-oxo-5-(4-(phenylamino)benzoyl)isoindolin-2-yl)piperidine-2,6-dione], for which the “CRBN binding affinity (% Ctrl @ 5µM)” value on Cereblon (CRBN) protein was “A (0 ≤ '% Ctrl' < 0.1)”. The figures for the GI50 in experiment [1], in experiment [3] and in experiment [2] were 100 to 1000 nM, ≤ 100 nM and ≤ 100 nM, respectively.
For `O=C1CCC(N2Cc3cc(C(=O)c4ccc5cn[nH]c5c4)ccc3C2=O)C(=O)N1` (centres unmarked) [Compound 21, 3-(5-(1H-indazole-6-carbonyl)-1-oxoisoindolin-2-yl)piperidine-2,6-dione], the “CRBN binding affinity (% Ctrl @ 5µM)” value on Cereblon (CRBN) protein is “A (0 ≤ '% Ctrl' < 0.1)”. For the same compound, the GI50 in experiment [1] was 100 to 1000 nM; in experiment [3] it was > 10000 nM; in experiment [2], 1000 to 10000 nM.
On to `O=C1CCC(N2Cc3cc(C(=O)c4ccc5c(c4)OCO5)ccc3C2=O)C(=O)N1` (centres unmarked) [Compound 42, 3-(5-(benzo[d][1,3]dioxole-5-carbonyl)-1-oxoisoindolin-2-yl)piperidine-2,6-dione], for which the GI50 in experiment [1] and in experiment [2] was ≤ 100 nM in each case.
As for `O=C1CCC(N2Cc3cc(C(=O)c4ccc5ccccc5c4)ccc3C2=O)C(=O)N1` (centres unmarked) [Compound 44, 3-(5-(2-naphthoyl)-1-oxoisoindolin-2-yl)piperidine-2,6-dione], the GI50 was ≤ 100 nM in experiment [1] and > 10000 nM in experiment [2].
